Measured values from paper PMC2951742 (ChemMedChem, 2010).
Where two headings read alike, the source gives them in different places.

What was measured:
[1] = test system: PCP-disrupted PPI in mice; assay: Normalization of PCP-disrupted prepulse inhibition; assay type: in vivo; conditions: 6 mg/kg PCP ip
CYP2C9 = CYP2C9 (Homo sapiens, UniProt P11712); assay: Recombinant CYP inhibition test, CYP2C9; assay type: in vitro ADME; conditions: at 10 μM
CYP2D6 = CYP2D6 (Homo sapiens, UniProt P10635); assay: Recombinant CYP inhibition test, CYP2D6; assay type: in vitro ADME; conditions: at 10 μM
Chain of CYP2D6 (P10635 whole entry): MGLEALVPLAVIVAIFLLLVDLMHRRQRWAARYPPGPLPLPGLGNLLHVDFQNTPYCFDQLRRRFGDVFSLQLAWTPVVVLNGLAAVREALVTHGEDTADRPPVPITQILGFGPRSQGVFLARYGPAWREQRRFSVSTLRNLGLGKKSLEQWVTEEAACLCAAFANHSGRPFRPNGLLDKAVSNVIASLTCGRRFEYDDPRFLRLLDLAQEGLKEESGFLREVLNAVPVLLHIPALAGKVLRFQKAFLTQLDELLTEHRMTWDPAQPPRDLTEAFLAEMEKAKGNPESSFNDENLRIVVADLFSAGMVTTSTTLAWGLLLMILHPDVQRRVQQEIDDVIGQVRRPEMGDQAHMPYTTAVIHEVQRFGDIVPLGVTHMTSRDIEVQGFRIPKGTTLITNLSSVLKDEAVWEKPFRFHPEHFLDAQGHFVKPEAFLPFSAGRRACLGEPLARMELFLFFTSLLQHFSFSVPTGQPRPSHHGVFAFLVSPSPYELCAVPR

CYP3A4 = CYP3A4 (Homo sapiens, UniProt P08684); assay: Recombinant CYP inhibition test, CYP3A4; assay type: in vitro ADME; conditions: at 10 μM
Chain of CYP3A4 (P08684 whole entry): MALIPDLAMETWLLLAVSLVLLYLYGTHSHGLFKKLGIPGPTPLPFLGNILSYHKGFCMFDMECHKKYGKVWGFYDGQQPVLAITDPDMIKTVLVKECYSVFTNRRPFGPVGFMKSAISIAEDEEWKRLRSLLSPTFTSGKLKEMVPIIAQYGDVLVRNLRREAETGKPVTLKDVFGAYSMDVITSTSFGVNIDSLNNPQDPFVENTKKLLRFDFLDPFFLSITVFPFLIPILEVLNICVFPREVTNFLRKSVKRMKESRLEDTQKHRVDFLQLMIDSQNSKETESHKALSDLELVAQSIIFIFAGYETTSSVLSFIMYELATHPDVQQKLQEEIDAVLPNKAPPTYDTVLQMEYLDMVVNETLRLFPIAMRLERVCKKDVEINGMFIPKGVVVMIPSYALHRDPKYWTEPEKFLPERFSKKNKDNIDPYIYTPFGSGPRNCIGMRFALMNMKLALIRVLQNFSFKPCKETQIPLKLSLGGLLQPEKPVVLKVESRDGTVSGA

[2] = Microsomal stability, human microsomes; assay type: in vitro ADME; conditions: 1h assay
[3] = Microsomal stability, rat microsomes; assay type: in vitro ADME; conditions: 1h assay
hERG = hERG (Homo sapiens, UniProt Q12809); assay: hERG assay; conditions: for hERG inhibition: result in words
Chain of hERG (Q12809 whole entry): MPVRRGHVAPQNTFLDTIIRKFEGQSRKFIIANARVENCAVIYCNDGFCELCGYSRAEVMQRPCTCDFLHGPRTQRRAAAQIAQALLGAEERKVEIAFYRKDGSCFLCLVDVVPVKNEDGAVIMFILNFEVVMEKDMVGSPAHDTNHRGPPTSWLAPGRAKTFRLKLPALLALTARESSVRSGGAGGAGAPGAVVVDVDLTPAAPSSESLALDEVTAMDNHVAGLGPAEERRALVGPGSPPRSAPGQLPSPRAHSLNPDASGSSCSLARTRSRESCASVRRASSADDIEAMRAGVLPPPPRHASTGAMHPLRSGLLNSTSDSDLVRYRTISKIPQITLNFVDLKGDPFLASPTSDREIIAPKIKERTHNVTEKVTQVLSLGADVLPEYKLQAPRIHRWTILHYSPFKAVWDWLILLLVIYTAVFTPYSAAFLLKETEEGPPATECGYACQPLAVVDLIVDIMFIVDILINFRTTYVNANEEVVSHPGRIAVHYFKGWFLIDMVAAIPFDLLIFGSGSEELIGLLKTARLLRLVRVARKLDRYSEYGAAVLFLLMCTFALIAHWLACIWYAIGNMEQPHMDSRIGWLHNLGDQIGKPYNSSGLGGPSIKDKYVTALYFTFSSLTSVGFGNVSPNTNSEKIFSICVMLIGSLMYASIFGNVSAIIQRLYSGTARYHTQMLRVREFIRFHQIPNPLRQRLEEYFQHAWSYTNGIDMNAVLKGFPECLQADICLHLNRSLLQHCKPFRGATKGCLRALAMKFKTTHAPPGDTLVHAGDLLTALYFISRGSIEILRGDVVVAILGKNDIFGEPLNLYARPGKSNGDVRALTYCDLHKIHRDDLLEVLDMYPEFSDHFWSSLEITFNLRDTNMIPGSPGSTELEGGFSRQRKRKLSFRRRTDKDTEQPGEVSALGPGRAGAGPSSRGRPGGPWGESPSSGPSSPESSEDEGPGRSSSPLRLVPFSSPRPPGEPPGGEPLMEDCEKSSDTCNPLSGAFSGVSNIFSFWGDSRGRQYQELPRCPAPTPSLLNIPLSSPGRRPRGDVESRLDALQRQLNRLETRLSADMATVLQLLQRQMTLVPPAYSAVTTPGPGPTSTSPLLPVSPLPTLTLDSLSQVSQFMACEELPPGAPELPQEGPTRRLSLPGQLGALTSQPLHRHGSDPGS

animals = assay: Adverse side effects in animals; conditions: in vivo
human 5-HT2B receptor = human 5-HT2B receptor (Homo sapiens, UniProt P41595); assay: Calcium flux; assay type: cell-based; conditions: for 5-HT2B %MAX ± SEM: percent of maximal activation by 5-HT, activation at 10 μM for compounds without EC50 value
Chain of human 5-HT2B receptor (P41595 whole entry): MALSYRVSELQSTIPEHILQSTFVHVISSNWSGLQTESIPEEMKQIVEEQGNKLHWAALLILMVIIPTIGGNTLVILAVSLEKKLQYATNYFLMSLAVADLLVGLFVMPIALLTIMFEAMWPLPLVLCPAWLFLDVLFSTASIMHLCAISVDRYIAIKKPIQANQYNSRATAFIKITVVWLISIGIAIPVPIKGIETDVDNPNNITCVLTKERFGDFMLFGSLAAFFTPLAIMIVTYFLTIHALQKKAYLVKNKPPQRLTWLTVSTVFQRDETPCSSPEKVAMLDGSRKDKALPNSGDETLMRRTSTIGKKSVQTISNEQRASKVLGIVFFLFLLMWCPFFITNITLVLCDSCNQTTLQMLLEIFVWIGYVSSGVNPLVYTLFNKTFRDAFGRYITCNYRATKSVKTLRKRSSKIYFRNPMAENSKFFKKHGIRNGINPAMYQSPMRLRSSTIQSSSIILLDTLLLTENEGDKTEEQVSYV

human 5-HT2A receptor = human 5-HT2A receptor (Homo sapiens, UniProt P28223); assay: Calcium flux; assay type: cell-based; conditions: for 5-HT2A %MAX ± SEM: percent of maximal activation by 5-HT, activation at 10 μM for compounds without EC50 value; for 5-HT2A EC50 ± SEM: HEK-293, calcium flux
Chain of human 5-HT2A receptor (P28223 whole entry): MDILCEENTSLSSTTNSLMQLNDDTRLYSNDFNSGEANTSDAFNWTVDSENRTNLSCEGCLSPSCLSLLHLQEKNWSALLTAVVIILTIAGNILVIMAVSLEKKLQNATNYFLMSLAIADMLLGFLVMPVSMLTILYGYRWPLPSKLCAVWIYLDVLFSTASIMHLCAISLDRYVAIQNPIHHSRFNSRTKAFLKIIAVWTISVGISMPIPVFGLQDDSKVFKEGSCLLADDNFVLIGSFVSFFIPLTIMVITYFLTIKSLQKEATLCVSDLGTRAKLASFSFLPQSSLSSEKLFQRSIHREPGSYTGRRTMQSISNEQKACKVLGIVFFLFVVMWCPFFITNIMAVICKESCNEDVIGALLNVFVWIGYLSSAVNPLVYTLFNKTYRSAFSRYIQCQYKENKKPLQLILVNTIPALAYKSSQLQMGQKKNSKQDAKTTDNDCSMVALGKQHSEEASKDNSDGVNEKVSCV

[4] = target: T1, human 5-HT2C (INI) receptor (Homo sapiens, UniProt P28335); assay: Calcium flux; assay type: cell-based; conditions: for 5-HT2C %MAX ± SEM: percent of maximal activation by 5-HT; for Selectivity 2A/2C / Selectivity 2B/2C: ratio of EC50 values
T1 sequence (P28335 33-458): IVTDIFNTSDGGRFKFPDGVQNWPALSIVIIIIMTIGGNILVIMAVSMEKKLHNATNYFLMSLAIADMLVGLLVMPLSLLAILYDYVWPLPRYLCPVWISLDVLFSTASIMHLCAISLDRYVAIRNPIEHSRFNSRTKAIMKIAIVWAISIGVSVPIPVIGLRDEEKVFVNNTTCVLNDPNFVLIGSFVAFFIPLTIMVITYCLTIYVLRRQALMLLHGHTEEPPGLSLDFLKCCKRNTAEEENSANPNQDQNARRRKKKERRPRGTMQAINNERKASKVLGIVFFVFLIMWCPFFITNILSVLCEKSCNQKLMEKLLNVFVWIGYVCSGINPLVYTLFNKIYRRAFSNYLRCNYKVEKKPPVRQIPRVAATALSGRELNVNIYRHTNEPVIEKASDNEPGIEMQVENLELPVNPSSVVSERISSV

[5] = test system: PCP-disrupted PPI in mice; conditions: identical PPI testing paradigm, earlier work; cited from earlier work

Chain of CYP2C9 (P11712 whole entry): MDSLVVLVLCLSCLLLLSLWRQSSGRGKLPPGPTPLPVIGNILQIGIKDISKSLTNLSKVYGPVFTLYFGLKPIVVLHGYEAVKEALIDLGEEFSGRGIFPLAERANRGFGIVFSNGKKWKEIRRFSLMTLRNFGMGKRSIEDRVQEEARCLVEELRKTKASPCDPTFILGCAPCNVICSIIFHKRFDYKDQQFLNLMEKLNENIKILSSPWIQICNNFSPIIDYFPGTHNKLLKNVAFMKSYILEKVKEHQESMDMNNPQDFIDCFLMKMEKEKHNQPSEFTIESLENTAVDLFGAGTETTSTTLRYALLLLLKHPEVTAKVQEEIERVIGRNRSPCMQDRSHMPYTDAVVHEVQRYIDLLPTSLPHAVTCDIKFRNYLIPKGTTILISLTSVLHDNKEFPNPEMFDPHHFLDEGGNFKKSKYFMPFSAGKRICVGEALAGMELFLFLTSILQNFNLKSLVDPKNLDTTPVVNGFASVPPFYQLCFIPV

**Q.** What does the source list for `NCC1CC1c1cc(F)ccc1OCC1CC1` (single isomer, unassigned; (+)) [(+)-12, trans-[2-(2 cyclopropylmethyloxy-5-fluorophenyl)cyclopropyl]-methylamine]?
**A.** Normalization of PCP-disrupted PPI ([1]; 5 mg/kg dose level): still effective; Normalization of PCP-disrupted PPI ([1]; 10 mg/kg): able to normalize PCP-disrupted PPI; Normalization of PCP-disrupted PPI (Figure 3) ([1]; 30 min pre-treatment, dose not stated in legend): effectively normalize PCP-disruption of PPI; CYP2C9 inhibition (CYP2C9): 19.6%; CYP2D6 inhibition (CYP2D6): 27.0%; CYP3A4 inhibition (CYP3A4; midazolam as substrate): 21.7%; CYP3A4 inhibition (CYP3A4; testosterone as substrate): 25.1%; Microsomal stability, % left [2]: 90.5%; Microsomal stability, % left [3]: 66%; hERG inhibition (hERG): no hERG inhibition was detected; Adverse side effects in animals (animals): no adverse side effects

**Q.** Which results are given for `C[C@H]1CNCCc2ccc(Cl)cc21` [2 (Lorcaserin), Lorcaserin]?
**A.** 5-HT2B %MAX ± SEM (human 5-HT2B receptor; first screening campaign): 93% ± 1.2%; hERG inhibition (hERG): no hERG inhibition was detected

**Q.** With `c1cc2c3c(c1)[C@H]1CCC[C@H]1CN3CCNC2` [3 (Vabicaserin), Vabicaserin] as the compound, how does the hERG inhibition (hERG) read?
**A.** no hERG inhibition was detected

**Q.** For `O=C1Nc2cc(Cl)c(Cl)cc2N2CCNCC12` (centres unmarked) [4 (WAY-161503), WAY-161503], which “5-HT2A %MAX ± SEM” value (human 5-HT2A receptor; first screening campaign) is on record?
**A.** 80% ± 1.0%

**Q.** And the “5-HT2A %MAX ± SEM” value (human 5-HT2A receptor; second screening campaign)?
**A.** 79% ± 4.5%

**Q.** What about the “5-HT2B %MAX ± SEM” value (human 5-HT2B receptor; first screening campaign) of the same compound?
**A.** 92% ± 1.3%

**Q.** What about the “5-HT2B %MAX ± SEM” value (human 5-HT2B receptor; second screening campaign) of the same compound?
**A.** 86% ± 4.7%

**Q.** And the “5-HT2C %MAX ± SEM” value ([4]; first screening campaign)?
**A.** 97% ± 1.6%

**Q.** And the “Selectivity 2A/2C” value ([4]; first screening campaign)?
**A.** 70

**Q.** What about the “Selectivity 2B/2C” value ([4]; first screening campaign) of the same compound?
**A.** 14

**Q.** What about the “5-HT2C %MAX ± SEM” value ([4]; second screening campaign) of the same compound?
**A.** 94% ± 3.6%

**Q.** What about the “Selectivity 2A/2C” value ([4]; second screening campaign) of the same compound?
**A.** 40

**Q.** What about the “Selectivity 2B/2C” value ([4]; second screening campaign) of the same compound?
**A.** 11

**Q.** What about the “hERG inhibition, concentration value” (hERG; quantity not given) of the same compound?
**A.** 3.6 mM

**Q.** What about the hERG inhibition (hERG) of the same compound?
**A.** very modest inhibition

**Q.** Which results are given for `c1cc2c3c(c1)c1c(n3CCNC2)CCCC1` [5 (WAY 629), WAY 629]?
**A.** 5-HT2A EC50 ± SEM (human 5-HT2A receptor; first screening campaign (upper table section)): NA (NA: Emax ≤ 12%); 5-HT2A %MAX ± SEM (human 5-HT2A receptor; first screening campaign): 1% ± 0.2%; 5-HT2A EC50 ± SEM (human 5-HT2A receptor; second screening campaign (lower table section)): NA (NA: Emax ≤ 12%); 5-HT2A %MAX ± SEM (human 5-HT2A receptor; second screening campaign): 7% ± 2.0%; 5-HT2B EC50 ± SEM (human 5-HT2B receptor; first screening campaign (upper table section), HEK-293, calcium flux): NA (NA: Emax ≤ 12%); 5-HT2B %MAX ± SEM (human 5-HT2B receptor; first screening campaign): 6% ± 1.3%; EC50 (human 5-HT2B receptor; read-out: 5-HT2B EC50, second screening campaign, value in μM): > 5 µM; 5-HT2B %MAX ± SEM (human 5-HT2B receptor; second screening campaign): 17% ± 2.7%; 5-HT2C %MAX ± SEM ([4]; first screening campaign): 80% ± 1.1%; 5-HT2C %MAX ± SEM ([4]; second screening campaign): 82% ± 3.5%; hERG inhibition (hERG): no hERG inhibition was detected

**Q.** For `CN1CCN(C2=Nc3cc(Cl)ccc3Nc3ccccc32)CC1` [clozapine], which “Normalization of PCP-disrupted PPI” value [5] is on record?
**A.** robustly normalizes PCP-disrupted PPI
